Measurements published in patent publication US20250163119A1, “COMPOUNDS FOR THE TREATMENT OF DIABETES OR OBESITY” (Eli Lilly and Company, priority 2023, published 2025).
“And” between values parts separate entries of the source, which are not always exact repeats. Equal values may be shown once. *1 amine or outer side, *2 acyl side, *3 side chain or, on linkers, in order; H or OH if unused. Side-chain parts run from the residue outwards. [ ]: non-standard residue; d: D form. The star is where a group is joined. C20 diacid = O=C(O)CCCCCCCCCCCCCCCCCCC(=O)*; γGlu = O=C(O)[C@H](CCC(=O)[*:2])N[*:1]; εLys = N[C@@H](CCCCN[*:1])C(=O)[*:2]; αMeL = CC(C)C[C@](C)(N)C(=O)O; AEEA = NCCOCCOCC(=O)O; Aib = CC(C)(N)C(=O)O

Experiments:
[1] = Pharmacokinetics in Sprague Dawley rats, single subcutaneous or intravenous dose (incl. 10, 30, 100 nmol/kg dose response); type: in vivo; conditions: for Tmax: read-out: Tmax
[2] = Pharmacokinetics in Yucatan mini-pigs, single subcutaneous or intravenous dose; type: in vivo; conditions: for Tmax: read-out: Tmax
Description: Plasma concentrations of compounds were determined by LC/MS methods. For each assay, the compound and an internal standard (IS), were extracted from 100% mouse, rat, pig, or monkey plasma (70 μL) using Isopropanol-Methanol. Two distinct layers were formed upon centrifugation with the compound and the IS located in the supernatant layer. An aliquot of the supernatant (150 μL) was transferred to a Waters Sirocco Protein Precipitation Plate. The supernatant was eluted using a positive pressure manifold. The supernatant was mixed with 100-2 Water-Formic acid (400 μL) in a pretreated Sep-Pak tC18 SPE plate and eluted to waste. The peptide and IS were eluted with Acetonitrile-Formic acid (100 μL) in 2 steps (50 μL each step). The elution (40 μL) from SPE plate was mixed with diluent solution (1.875 μL 5× invitrosol and 3.125 μL 1% formic acid in water, 80 μL). A final sample (10 μl) was loaded onto a Xselect CSH C18 IS column (3.5 μm 2.1×20 mm). The column effluent was directed into a Thermo Fisher Scientific Orbitrap (Exploris 240) mass spectrometer for detection and quantitation.
Male Yucatan mini-pigs were administered a single subcutaneous dose or intravenous dose (19 or 99 nmol/kg) of compound in 40 mM Tris-HCl 5% D-mannitol (pH 8) at a volume of 0.01 or 0.05 mL/kg. Blood was collected from each animal at 0.083 (IV only), 0.5, 3, 6, 24, 48, 72, 96, 168, 240, 336, 408, and 504 hours postdose for pharmacokinetic characterization.

[3] = dose response, single subcutaneous dose 10 nmol/kg, male Sprague Dawley rats, individual animal
[4] = dose response, single subcutaneous dose 30 nmol/kg, male Sprague Dawley rats, individual animal
[5] = dose response, single subcutaneous dose 100 nmol/kg, male Sprague Dawley rats, individual animal
[6] = male Sprague Dawley rats, single intravenous dose 187 nmol/kg, individual animal
[7] = male, Sprague Dawley, rat, plasma, iv, 187 nmol/kg, single intravenous dose 187 nmol/kg, Mean
[8] = male, Sprague Dawley, rat, plasma, sc, 10 nmol/kg, dose response, single subcutaneous dose 10 nmol/kg, individual animal
[9] = male, Sprague Dawley, rat, plasma, sc, 10 nmol/kg, dose response, single subcutaneous dose 10 nmol/kg, mean
[10] = male, Sprague Dawley, rat, plasma, sc, 30 nmol/kg, dose response, single subcutaneous dose 30 nmol/kg, individual animal
[11] = male, Sprague Dawley, rat, plasma, sc, 30 nmol/kg, dose response, single subcutaneous dose 30 nmol/kg, mean
[12] = male, Sprague Dawley, rat, plasma, sc, 100 nmol/kg, dose response, single subcutaneous dose 100 nmol/kg, individual animal
[13] = male, Sprague Dawley, rat, plasma, sc, 100 nmol/kg, dose response, single subcutaneous dose 100 nmol/kg, mean
[14] = male, Sprague Dawley, rat, plasma, sc, 187 nmol/kg, single subcutaneous dose 187 nmol/kg, individual animal
[15] = male, Sprague Dawley, rat, plasma, sc, 187 nmol/kg, single subcutaneous dose 187 nmol/kg, mean
[16] = single subcutaneous dose 187 nmol/kg, male Sprague Dawley rats, individual animal
[17] = male Yucatan pigs, single subcutaneous dose 19 nmol/kg, individual animal
[18] = male, Yucatan mini-pig, minipig, plasma, iv, 19 nmol/kg, single intravenous dose 19 nmol/kg, individual animal
[19] = male, Yucatan mini-pig, minipig, plasma, iv, 19 nmol/kg, single intravenous dose 19 nmol/kg, mean
[20] = male, Yucatan mini-pig, minipig, plasma, sc, 19 nmol/kg, single subcutaneous dose 19 nmol/kg, Mean
[21] = male, Yucatan mini-pig, minipig, plasma, sc, 19 nmol/kg, single subcutaneous dose 19 nmol/kg, individual animal
[22] = single intravenous dose 19 nmol/kg, male Yucatan pigs, individual animal

- CL/F [1, 3]: 6.10 mL/h/kg and 4.63 mL/h/kg
- T1/2 [1, 3]: 41.7 h and 31.1 h
- CL/F [1, 4]: 4.55 mL/h/kg and 4.19 mL/h/kg
- T1/2 [1, 4]: 37.1 h and 36.1 h
- CL/F [1, 5]: 4.86 mL/h/kg and 4.91 mL/h/kg
- T1/2 [1, 5]: 26.0 h and 24.6 h
- CL [1, 6]: 2.04 mL/h/kg and 2.42 mL/h/kg
- T1/2 [1, 6]: 47.5 h and 23.2 h and 31.0 h
- clearance [1, 7]: 2.05 mL/h/kg
- half-life [1, 7]: 33.9 h
- clearance ([1]; male, Sprague Dawley, rat, plasma, iv, 187 nmol/kg, single intravenous dose 187 nmol/kg, individual animal): 1.69 mL/h/kg
- half-life [1, 8]: 26 h
- CL/F ([1]; male, Sprague Dawley, rat, plasma, sc, 10 nmol/kg, dose response, single subcutaneous dose 10 nmol/kg, individual animal, read-out: CL/F (converted)): 5.1 mL/h/kg
- Tmax [1, 8]: 24 h
- half-life [1, 9]: 32.9 h
- CL/F ([1]; male, Sprague Dawley, rat, plasma, sc, 10 nmol/kg, dose response, single subcutaneous dose 10 nmol/kg, mean, read-out: CL/F (converted)): 5.28 mL/h/kg
- Tmax [1, 9]: 24 h
- half-life [1, 10]: 31.5 h
- CL/F ([1]; male, Sprague Dawley, rat, plasma, sc, 30 nmol/kg, dose response, single subcutaneous dose 30 nmol/kg, individual animal, read-out: CL/F (converted)): 4.8 mL/h/kg
- Tmax [1, 10]: 24 h
- half-life [1, 11]: 34.9 h
- CL/F ([1]; male, Sprague Dawley, rat, plasma, sc, 30 nmol/kg, dose response, single subcutaneous dose 30 nmol/kg, mean, read-out: CL/F (converted)): 4.51 mL/h/kg
- Tmax [1, 11]: 32 h
- half-life [1, 12]: 30.8 h
- CL/F ([1]; male, Sprague Dawley, rat, plasma, sc, 100 nmol/kg, dose response, single subcutaneous dose 100 nmol/kg, individual animal, read-out: CL/F (converted)): 5.46 mL/h/kg
- Tmax [1, 12]: 24 h
- half-life [1, 13]: 27.1 h
- CL/F ([1]; male, Sprague Dawley, rat, plasma, sc, 100 nmol/kg, dose response, single subcutaneous dose 100 nmol/kg, mean, read-out: CL/F (converted)): 5.08 mL/h/kg
- Tmax [1, 13]: 24 h
- half-life [1, 14]: 37.7 h
- CL/F ([1]; male, Sprague Dawley, rat, plasma, sc, 187 nmol/kg, single subcutaneous dose 187 nmol/kg, individual animal, read-out: CL/F (converted)): 3.67 mL/h/kg
- Tmax [1, 14]: 24 h
- half-life [1, 15]: 35.7 h
- CL/F ([1]; male, Sprague Dawley, rat, plasma, sc, 187 nmol/kg, single subcutaneous dose 187 nmol/kg, mean, read-out: CL/F (converted)): 4.07 mL/h/kg
- Tmax [1, 15]: 24 h
- AUC0-inf ([1]; rat, plasma, sc, dose response, single subcutaneous dose 10 nmol/kg, male Sprague Dawley rats, mean, read-out: AUC0-inf): 2.05 µM·h
- Cmax ([1]; rat, plasma, sc, dose response, single subcutaneous dose 10 nmol/kg, male Sprague Dawley rats, mean, read-out: Cmax): 34.2 nM
- AUC0-inf ([1]; rat, plasma, sc, dose response, single subcutaneous dose 30 nmol/kg, male Sprague Dawley rats, mean, read-out: AUC0-inf): 7.01 µM·h
- Cmax ([1]; rat, plasma, sc, dose response, single subcutaneous dose 30 nmol/kg, male Sprague Dawley rats, mean, read-out: Cmax): 105 nM
- AUC0-inf ([1]; rat, plasma, sc, dose response, single subcutaneous dose 100 nmol/kg, male Sprague Dawley rats, mean, read-out: AUC0-inf): 20.2 µM·h
- Cmax ([1]; rat, plasma, sc, dose response, single subcutaneous dose 100 nmol/kg, male Sprague Dawley rats, mean, read-out: Cmax): 334 nM
- AUC0-inf ([1]; rat, plasma, sc, single subcutaneous dose 187 nmol/kg, male Sprague Dawley rats, mean, read-out: AUC0-inf): 49 µM·h
- Cmax ([1]; rat, plasma, sc, single subcutaneous dose 187 nmol/kg, male Sprague Dawley rats, mean, read-out: Cmax): 657 nM
- AUC0-inf ([1]; rat, plasma, male Sprague Dawley rats, single intravenous dose 187 nmol/kg, Mean, read-out: AUC0-inf): 93.4 µM·h
- C0 ([1]; rat, plasma, male Sprague Dawley rats, single intravenous dose 187 nmol/kg, Mean, read-out: C0): 5110 nM
- CL/F [1, 16]: 4.77 mL/h/kg and 3.77 mL/h/kg
- T1/2 [1, 16]: 38.2 h and 31.2 h
- AUC0-inf ([2]; Yucatan mini-pig, minipig, plasma, sc, male Yucatan pigs, single subcutaneous dose 19 nmol/kg, Mean, read-out: AUC0-inf): 17.8 µM·h
- Cmax ([2]; Yucatan mini-pig, minipig, plasma, sc, male Yucatan pigs, single subcutaneous dose 19 nmol/kg, Mean, read-out: Cmax): 147 nM
- AUC0-inf [2, 17]: 22.4 µM·h and 13.1 µM·h
- CL/F [2, 17]: 1.46 mL/h/kg
- Cmax [2, 17]: 171 nM and 122 nM
- T1/2 [2, 17]: 60.2 h
- clearance [2, 18]: 0.583 mL/h/kg
- half-life [2, 18]: 87 h
- clearance [2, 19]: 0.755 mL/h/kg
- half-life [2, 19]: 71.5 h
- half-life [2, 20]: 75.9 h
- CL/F ([2]; male, Yucatan mini-pig, minipig, plasma, sc, 19 nmol/kg, single subcutaneous dose 19 nmol/kg, Mean, read-out: CL/F (converted)): 1.15 mL/h/kg
- Tmax [2, 20]: 6 h
- half-life [2, 21]: 91.6 h
- CL/F ([2]; male, Yucatan mini-pig, minipig, plasma, sc, 19 nmol/kg, single subcutaneous dose 19 nmol/kg, individual animal, read-out: CL/F (converted)): 0.848 mL/h/kg
- Tmax [2, 21]: 6 h
- AUC0-inf ([2]; minipig, plasma, single intravenous dose 19 nmol/kg, male Yucatan pigs, mean, read-out: AUC0-inf): 26.2 µM·h
- C0 ([2]; minipig, plasma, single intravenous dose 19 nmol/kg, male Yucatan pigs, mean, read-out: C0): 619 nM
- AUC0-inf [2, 22]: 32.1 µM·h and 20.2 µM·h
- C0 [2, 22]: 591 nM and 646 nM
- CL [2, 22]: 0.927 mL/h/kg
- T1/2 [2, 22]: 55.9 h
Substance: Ac-GSPSIVTS[αMeL]DVPT[Aib][αMeL]LQKILEQERAEKARQQAK([γGlu-AEEA-εLys-C20 diacid])EAAEILAQV-NH2 [SEQ ID NO: 1, Ac-GSPSIVTS αMeL DVPT Aib αMeL LQKILEQERAEKARQQAK(γE-(2-[2-(2-Amino-ethoxy)-ethoxy]-acetyl)-ϵK-CO-(CH2)18-CO2H)EAAEILAQV-NH2]
- AUC0-inf [1, 3]: 2.07 µM·h and 1.86 µM·h and 2.21 µM·h
- Cmax [1, 3]: 37.7 nM and 26.4 nM and 38.5 nM
- AUC0-inf [1, 4]: 6.42 µM·h and 6.92 µM·h and 7.69 µM·h
- Cmax [1, 4]: 102 nM and 110 nM and 104 nM
- AUC0-inf [1, 5]: 18.8 µM·h and 21.1 µM·h and 20.7 µM·h
- Cmax [1, 5]: 348 nM and 332 nM and 321 nM
- AUC0-inf [1, 6]: 111 µM·h and 91.9 µM·h and 77.3 µM·h
- C0 [1, 6]: 5970 nM and 6950 nM and 2400 nM
- AUC0-inf [1, 16]: 53.9 µM·h and 41.2 µM·h and 51.8 µM·h
- Cmax [1, 16]: 804 nM and 511 nM and 657 nM
